Source: paper PMC8472993, “A Novel Glutathione S-Transferase Gtt2 Class (VpGSTT2) Is Found in the Genome of the AHPND/EMS Vibrio parahaemolyticus Shrimp Pathogen” (Toxins, 2021)

Experiments:
VpGSTT2 = molecular target: T1, VpGSTT2 (Vibrio parahaemolyticus, UniProt Q87HB4); experiment: spectrophotometric CDNB conjugation at […] nm, initial rates; assay type: biochemical; details: read-out: CDNB / Km; CDNB 0.3-2 mM, GSH 0.5 mM fixed; phosphate buffer (0.1 M NaH2PO4 pH 6.5), room temperature
T1 construct: gene VPA1051; Full coding region, synthetic E. coli-optimised gene in pET11a; C-terminal PreScission site and 6xHis tag (tag removal described); E. coli BL21(DE3) Gold
T1 sequence (Q87HB4 1-204): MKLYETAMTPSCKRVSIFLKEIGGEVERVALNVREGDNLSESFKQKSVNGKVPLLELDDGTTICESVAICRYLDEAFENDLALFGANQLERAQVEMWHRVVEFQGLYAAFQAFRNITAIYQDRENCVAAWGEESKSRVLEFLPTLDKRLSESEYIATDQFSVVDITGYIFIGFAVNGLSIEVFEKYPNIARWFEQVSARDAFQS

[1] = molecular target: Glutathione S-transferase class Gtt2 from Vibrio parahaemolyticus (VpGSTT2) (Vibrio parahaemolyticus (strain FIM-S1708+)); experiment: SEC; Superdex 75 HR 10/300 GL on an Äkta Pure, calibrated with molecular-weight standards (conalbumin, ovalbumin, carbonic anhydrase, ribonuclease A, aprotinin); VpGSTT2 eluted at 10.8 mL, corresponding to 48.2 kDa; protein dialysed against Tris-HCl, 150 mM NaCl, pH 7.2

Row | Molecule | Km (VpGSTT2) [µM] | stoichiometry N [1]
1 | O=[N+]([O-])c1ccc(Cl)c([N+](=O)[O-])c1 [CDNB, 1-chloro-2,4-dinitrobenzene] | 1000 | –
2 | Glutathione S-transferase class Gtt2 from Vibrio parahaemolyticus (VpGSTT2) (enzyme) | – | 2
